In PMC7403393 (Scientific Reports, 2020):
Where a name gives a salt, the structure may show the parent alone. Read-outs that look alike come from different tables or passages of the source.

Columns and labels:
[1] = test system: SARS-CoV-2; assay: EC50/EC90 determination by quantification of viral genome (real-time RT-PCR) in VeroE6 cells; type: cell-based, SARS-CoV-2 strain BavPat1; settings: for activity at 40 µM: VeroE6, 40 µM
[2] = in vitro; settings: African green monkey
[3] = test system: SARS-CoV-2; settings: 5 and 10 µM
[4] = test system: VeroE6 cells; set-up: method as in PMID 29642580; settings: cited from earlier work
[5] = test system: SARS-CoV-2; assay: microbe, parasite or virus in culture; settings: Severe acute respiratory syndrome coronavirus 2, Vero C1008, read-out: cell viability
[6] = test system: SARS-CoV-2; set-up: method as in earlier work; settings: cited from earlier work
[7] = test system: SARS-CoV-2
[8] = test system: VeroE6 cells; settings: VeroE6, no virus, CellTiter Blue
[9] = test system: SARS-CoV-2; assay: microbe, parasite or virus in culture; settings: Severe acute respiratory syndrome coronavirus 2, Caco-2, read-out: replication inhibition
[10] = Severe acute respiratory syndrome coronavirus 2, Vero C1008, 48 h
[11] = Severe acute respiratory syndrome coronavirus 2, Vero C1008, 48 h, VeroE6, viral RNA by RT-qPCR, 2 days
[12] = selectivity index CC50/EC50, VeroE6
[13] = Severe acute respiratory syndrome coronavirus 2, Vero C1008, 48 h, VeroE6, viral RNA by RT-qPCR, 2 days, read-out: EC50
[14] = Severe acute respiratory syndrome coronavirus 2, Vero C1008, 48 h, VeroE6, viral RNA by RT-qPCR, 2 days, read-out: EC90
[15] = 10 µM compound, VeroE6, MOI 0.002, 3 days after infection, normalized cell viability relative to 10 µM arbidol
[16] = VeroE6, viral RNA by RT-qPCR, 2 days, read-out: EC50
[17] = VeroE6, viral RNA by RT-qPCR, 2 days, read-out: EC90

Molecule: CCCCC[C@H](O)/C=C/[C@H]1[C@H](O)CC(=O)[C@@H]1CCCCCCC(=O)O [Alprostadil]
- EC90 [1, 10]: > 40 µM
- EC50 [1, 11]: 5.39 µM
- SI [1, 12]: > 7.4
- CC50 at 2 days ([2]; VeroE6 cells (no virus)): > 40 µM

Molecule: COC(c1ccccc1)(c1ccccc1)[C@H](Oc1nc(C)cc(C)n1)C(=O)O [Ambrisentan]
- EC50 [1, 13]: ≥ 40 µM
- activity at 40 µM [1]: lack of activity

Molecule: CCOC(=O)c1c(CSc2ccccc2)n(C)c2cc(Br)c(O)c(CN(C)C)c12 [Arbidol]
- EC50 [1, 13]: 10.7 µM
- EC90 [1, 14]: 15.2 µM
- SI [1, 12]: > 3.7
- antiviral effect in Caco-2 cells (in words) [3]: weaker than the one observed in VeroE6
- CC50 [4]: > 40 µM
- viability at 10 µM [5]: 70 to 90%

Molecule: CC[C@H]1OC(=O)[C@H](C)[C@@H](O[C@H]2C[C@@](C)(OC)[C@@H](O)[C@H](C)O2)[C@H](C)[C@@H](O[C@@H]2O[C@H](C)C[C@H](N(C)C)[C@H]2O)[C@](C)(O)C[C@@H](C)CN(C)[C@H](C)[C@@H](O)[C@]1(C)O [Azithromycine]
- EC50 [1, 13]: 2.12 µM
- EC90 [1, 14]: 8.65 µM
- SI [1, 12]: > 19
- antiviral effect in a macaque model [6]: no antiviral effect
- CC50 at 2 days ([2]; VeroE6 cells (no virus)): > 40 µM

Molecule: CCCCOc1cc(C(=O)OCCN(CC)CC)ccc1N [Benoxinate hydrochloride]
- Inhibition index [7, 15]: 1.19

Molecule: CCOc1nc2cccc(C(=O)O)c2n1Cc1ccc(-c2ccccc2-c2nnn[nH]2)cc1 [Candesartan]
- activity at 40 µM [1]: lack of activity

Molecule: Cn1nnnc1SCC1=C(C(=O)O)N2C(=O)[C@@H](NC(=O)[C@H](O)c3ccccc3)[C@H]2SC1 [Cefamandole]
- EC50 [1, 13]: ≥ 40 µM

Molecule: CCN(CC)CCCC(C)Nc1ccnc2cc(Cl)ccc12 (centres unmarked) [Chloroquine diphosphate]
- Inhibition index [7, 15]: 1.35

Molecule: Cl.Clc1ccc(Cn2c(CN3CCCC3)nc3ccccc32)cc1 [Clemizole hydrochloride]
- EC50 [1, 16]: 23.9 µM
- EC90 [1, 17]: 38.2 µM
- SI [1, 12]: > 1.7
- Inhibition index [7, 15]: 1.01
- CC50 [8]: > 40 µM

Molecule: CC(C)CN(C[C@@H](O)[C@H](Cc1ccccc1)NC(=O)O[C@H]1CO[C@H]2OCC[C@H]21)S(=O)(=O)c1ccc(N)cc1 [Darunavir]
- EC50 [1, 13]: ≥ 40 µM

Molecule: CNCC(O)c1ccc(OC(=O)C(C)(C)C)c(OC(=O)C(C)(C)C)c1 (centres unmarked) [Dipivefrin hydrochloride]
- Inhibition index [7, 15]: 1.01

Molecule: C[C@@H]1CCO[C@H]2Cn3cc(C(=O)NCc4ccc(F)cc4F)c(=O)c(O)c3C(=O)N12 [Dolutegravir]
- EC90 [1, 10]: > 40 µM
- EC50 [1, 13]: 22 µM
- SI [1, 12]: > 1.8
- CC50 at 2 days ([2]; VeroE6 cells (no virus)): > 40 µM

Molecule: CCCCOc1ccc(C(=O)CCN2CCCCC2)cc1 [Dyclonine hydrochloride]
- EC50 [1, 13]: 10 µM
- EC90 [1, 14]: > 40 µM
- SI [1, 12]: > 4
- antiviral effect in Caco-2 cells (in words) [3]: Arbidol-like result
- CC50 at 2 days ([2]; VeroE6 cells (no virus)): > 40 µM

Molecule: C[C@]12CC[C@H](O)C[C@@H]1CC[C@@H]1[C@@H]2CC[C@]2(C)C(=O)CC[C@@H]12 [Epiandrosterone]
- Inhibition index [7, 15]: 1.07

Molecule: C=C1C[C@@H]2[C@H](CC[C@]3(C)C(=O)CC[C@@H]23)[C@@]2(C)C=CC(=O)C=C12 [Exemestane]
- EC90 [1, 10]: 9.86 µM
- EC50 [1, 11]: 7.51 µM
- Inhibition index [7, 15]: 1.10
- antiviral effect in Caco-2 cells (in words) [3]: Arbidol-like result
- CC50 at 2 days [2]: > 40 µM

Molecule: COc1ccc(CC(C)NCC(O)c2ccc(O)c(NC=O)c2)cc1 (centres unmarked) [Formoterole]
- EC50 [1, 16]: ≥ 40 µM

Molecule: CCN(CCO)CCCC(C)Nc1ccnc2cc(Cl)ccc12 (centres unmarked) [Hydroxychloroquine sulfate]
- EC50 [1, 13]: 4.17 µM
- EC90 [1, 14]: 25.5 µM
- antiviral effect in a macaque model [6]: no antiviral effect
- CC50 at 2 days [2]: > 40 µM

Molecule: CC(C)(C)NC[C@H](O)c1ccc(O)c(CO)c1 [Levalbuterol]
- EC50 [1, 13]: ≥ 40 µM

Molecule: O=C([O-])c1ccccc1-c1c2cc(Br)c(=O)cc-2oc2[c]([Hg+])c([O-])c(Br)cc12.[Na+].[Na+].[OH-] [Merbromin disodium salt]
- Inhibition index [7]: 1.12

Molecule: CN1CCN2c3ncccc3Cc3ccccc3C2C1 (centres unmarked) [Mirtazapine]
- Inhibition index [7, 15]: 1.03

Molecule: CCCc1nc(C(C)(C)O)c(C(=O)O)n1Cc1ccc(-c2ccccc2-c2nnn[nH]2)cc1 [Olmesartan]
- EC50 [1, 13]: ≥ 40 µM
- activity at 40 µM [1]: lack of activity

Molecule: COc1ccc2[nH]c([S+]([O-])Cc3ncc(C)c(OC)c3C)nc2c1 (centres unmarked) [Omeprazole]
- EC50 [1, 13]: 17.1 µM
- EC90 [1, 14]: 38 µM
- CC50 at 2 days ([2]; VeroE6 cells (no virus)): > 40 µM

Molecule: OCCN1CCN(CCCN2c3ccccc3C=Cc3ccccc32)CC1 [Opipramol dihydrochloride]
- EC50 [1, 13]: 5.05 µM
- EC90 [1, 14]: 5.97 µM
- SI [1, 12]: > 7.9
- Inhibition index [7, 15]: 1.05
- CC50 at 2 days ([2]; VeroE6 cells (no virus)): > 40 µM

Molecule: C=CCOc1ccccc1OCC(O)CNC(C)C (centres unmarked) [Oxprenolol hydrochloride]
- EC50 [1, 13]: 20.2 µM
- EC90 [1, 14]: > 40 µM
- SI [1, 12]: > 2
- CC50 at 2 days ([2]; VeroE6 cells (no virus)): > 40 µM

Molecule: CC(=O)[C@H]1CC[C@H]2[C@@H]3CC=C4C[C@@H](O)CC[C@]4(C)[C@H]3CC[C@]12C [Pregnenolone]
- Inhibition index [7, 15]: 1.66

Molecule: CN(C)CCCN1c2ccccc2Sc2ccccc21 [Promazine hydrochloride]
- Inhibition index [7, 15]: 1.16

Molecule: C=C[C@H]1C[N@@]2CC[C@H]1C[C@@H]2[C@@H](O)c1ccnc2ccc(OC)cc12 [Quinidine hydrochloride]
- SI [1]: > 7.8
- EC50 [1, 13]: 5.11 µM
- EC90 [1, 14]: > 40 µM
- CC50 at 2 days ([2]; VeroE6 cells (no virus)): > 40 µM

Molecule: COc1ccccc1OCC(O)CN1CCN(CC(=O)Nc2c(C)cccc2C)CC1 (centres unmarked) [Ranolazine]
- EC50 [1, 13]: ≥ 40 µM

Molecule: CCC(CC)COC(=O)[C@H](C)N[P@](=O)(OC[C@H]1O[C@@](C#N)(c2ccc3c(N)ncnn23)[C@H](O)[C@@H]1O)Oc1ccccc1 [Remdesivir]
- inhibition at 5 µM [9]: 100%
- inhibition at 10 µM [9]: 100%

Molecule: O=C(CCCN1CCC2(CC1)C(=O)NCN2c1ccccc1)c1ccc(F)cc1 [Spiperone]
- EC90 [1, 14]: 13.1 µM
- CC50 at 2 days [2]: > 40 µM

Molecule: COc1ncnc(NS(=O)(=O)c2ccc(N)cc2)c1OC [Sulfadoxine]
- EC90 [1, 10]: > 40 µM
- EC50 [1, 11]: > 30 µM
- EC50 [1, 16]: 35.4 µM
- SI [1, 12]: > 1.13
- antiviral effect in Caco-2 cells (in words) [3]: Arbidol-like result
- CC50 at 2 days [2]: > 40 µM

Molecule: Nc1c2c(nc3ccccc13)CCCC2 [Tacrine hydrochloride]
- Inhibition index [7, 15]: 1.44

Molecule: CNCc1cc(-c2ccccc2F)n(S(=O)(=O)c2cccnc2)c1 [Vonoprazan]
- EC90 [1, 10]: > 40 µM
- EC50 [1, 11]: > 30 µM
- EC50 [1, 16]: 38.6 µM
- SI [1, 12]: > 1
- CC50 at 2 days [2]: > 40 µM

Molecule: Spiramycin
- SI [1]: > 5
- EC50 [1, 16]: 7.95 µM
- EC90 [1, 17]: 10.5 µM
- CC50 [8]: > 40 µM
